According to patent US7928099B2, “Pyrimido [4,5-D] azepine derivatives as 5-HT2c agonists” (Pfizer Inc, priority 2007, dated 2011):

Molecular target: T1, human recombinant 5-HT2c receptor (Homo sapiens, UniProt P28335)
T1 construct: expressed in transfected cells; host or cells: CHO K1 (Chinese hamster ovary), stably transfected
T1 sequence (P28335 33-458): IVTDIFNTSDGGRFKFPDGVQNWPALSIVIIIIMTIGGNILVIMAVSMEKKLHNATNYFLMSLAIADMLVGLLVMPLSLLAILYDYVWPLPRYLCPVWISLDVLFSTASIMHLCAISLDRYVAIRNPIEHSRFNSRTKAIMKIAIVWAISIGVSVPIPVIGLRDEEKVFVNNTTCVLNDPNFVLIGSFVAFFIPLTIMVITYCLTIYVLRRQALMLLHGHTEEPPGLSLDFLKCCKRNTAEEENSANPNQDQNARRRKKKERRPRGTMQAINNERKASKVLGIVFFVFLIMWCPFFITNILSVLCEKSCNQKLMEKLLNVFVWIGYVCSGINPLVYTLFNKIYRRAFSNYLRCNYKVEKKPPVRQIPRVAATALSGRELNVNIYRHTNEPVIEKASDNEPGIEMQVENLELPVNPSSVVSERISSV
Test: FLIPR fluorescent Ca2+ mobilisation agonist assay in CHO K1 cells (Method 1)
Format: cell-based
Details: for Emax / Emax %: percentage of mean maximal response to 10 μM 5-HT; for EC50: agonist affinity, FLIPR
Protocol: The compounds of the invention were evaluated for biological activity by measuring the agonist affinity (EC50) and efficacy (Emax) at the human recombinant 5-HT2c receptor expressed in CHO K1 cells, using a fluorescent based Ca^2+ mobilisation assay format compatible with FLIPR technology (Method 1). Additionally, the binding activity of a compound was determined by measuring its affinity for the human recombinant 5-HT2c receptor membranes from Swiss 3T3 cells (Method 2).
The agonist affinity of the compounds were tested by measuring their ability to induce a fluorescent based Ca^2+ mobilization signal in a FLIPR assay using CHO K1 cells expressing recombinant human 5-HT2C receptor. Both agonist affinity (EC50) and efficacy (Emax) were determined.
Chinese hamster ovary cells (CHO K1) stably transfected with the 5-HT2c receptor were cultured under standard cell culture techniques. Specifically, cells were grown at 37° C. and 5% CO2 in Dulbecco's Modified Eagle's Medium (DMEM) culture media supplemented with 10% dialysed foetal calf serum (FCS), 1% non-essential amino acids, 1 mM sodium pyruvate, 800 μg/mL geneticin and 50 μg/ml zeocin. Cells were harvested for passaging and storage using trypsin-EDTA, centrifugation and resuspension in culture medium. Cells were grown to 60-80% confluency, harvested and adjusted to 15-20×10^6 cells/ml/vial in medium/10% DMSO and stored long-term at −80° C.
Cells were seeded into black-walled clear-bottomed 384 well plates 24 h before use. Frozen cells were defrosted in a 37° C. water bath and immediately transferred into 1 mL/vial 37° C. culture medium, diluted to 10 ml and DMSO removed by centrifugation. The cells were resuspended in 15 ml/vial of cell culture medium, counted and adjusted to give 500,000 cells/mL (10,000 cells/well). […] of cell suspension was added to the 384 well plates which were then incubated overnight at 37° C.
The maximum agonist response was determined with 5-HT at a final assay concentration of 10 μM in the diluent above. The minimum response was determined with Dulbeccos PBS (+CaCl2, +MgCl2) with 0.9% DMSO and 0.05% pluronic F-127. Test compounds, maximum and minimum controls were added to a 384 well polypropylene plate.
The FLIPR calcium assay reagent was diluted with assay buffer (Hank's Balanced Salt Solution (HBSS))/20 mM HEPES and 2.5 mM probenecid (diluted with 1M Sodium hydroxide and DPBS (+CaCl2, +MgCl2)).
20 μl/well FLIPR calcium assay reagent was added to the cell plates, which were incubated for 1 h at 37° C. Cell plates and compound plates were then transferred onto the FLIPR. The assay was run using the appropriate FLIPR program, which initiates the reaction by transferring 15 μL compound into the corresponding, well of the cell plate.
The statistical parameter exported from each well was the max peak height of the response.

Compound | Emax (CHO-K1, efficacy) [%] | EC50 [µM] | Emax % (efficacy) [%] | Emax (efficacy) [%]
c1ccc(Cc2nc3c(c(OCCc4ccncc4)n2)CCNCC3)cc1 [Example 79, 2-benzyl-4-(2-pyridin-4-ylethoxy)-6,7,8,9-tetrahydro-5H-pyrimido[4,5-d]azepine] | 67.3 | 0.154 | – | –
CCN(C)c1nc2c(c(NC)n1)CCNCC2 [Example 102, N-2-ethyl-N-2,N-4-dimethyl-6,7,8,9-tetra-hydro-5H-pyrimido[4,5-d]-azepine-2,4-diamine] | 74.3 | 0.173 | – | –
Cc1ncccc1COc1nc(Cc2ccccc2)nc2c1CCNCC2 [Example 77, 2-benzyl-4-[(2-methyl-pyridin-3-yl)methoxy]-6,7,8,9-tetrahydro-5H-pyrimido[4,5-d]azepine] | 70.3 | 0.13 | – | –
Fc1cccc(Cc2ncc3c(n2)CCNCC3)c1 [Example 61, 2-(3-Fluorobenzyl)-6,7,8,9-tetrahydro-5H-pyrimido[4,5-d]azepine] | 67.1 | 0.125 | – | –
CN(C)c1nc(N2CCOCC2)nc2c1CCNCC2 [Example 97, N,N-dimethyl-2-morpholin-4-yl-6,7,8,9-tetrahydro-5H-pyrimido-[4,5-d]azepin-4-amine] | 84.6 | 0.0676 | – | –
C1Cc2nc(N3CCOCC3)nc(N3CCSCC3)c2CCN1 [Example 96, 2-morpholin-4-yl-4-thio-morpholin-4-yl-6,7,8,9-tetrahydro-5H-pyrimido-[4,5-d]azepin-4-amine] | 66.9 | 0.311 | – | –
N-benzyl-N-methyl-6,7,8,9-tetrahydro-5H-pyrimido[4,5-d]azepin-2-amine hydrochloride [Example 49] | – | 0.182 | 71.20 | –
CCCNc1nc(N(C)CC2CC2)nc2c1CCNCC2 [Example 103, N-2-(cyclopropylmethyl)-N-2-methyl-N-4-propyl-6,7,8,9-tetrahydro-5H-pyrimido[4,5-d]azepine-2,4-diamine] | 32.7 | 0.449 | – | –
CN1CCC[C@H]1COc1nc(Cc2ccccc2)nc2c1CCNCC2 [Example 78, 2-benzyl-4-{[(2S)-1-methylpyrrolidin-2-yl]methoxy}-6,7,8,9-tetrahydro-5H-pyrimido[4,5-d]azepine] | 69.5 | 0.138 | – | –
C1Cc2nc(N3CCSCC3)nc(N3CCSCC3)c2CCN1 [Example 94, 2,4-dithiomorpholin-4-yl-6,7,8,9-tetrahydro-5H-pyrimido[4,5-d]azepine] | 80.8 | 0.261 | – | –
CN(C)c1nc(N(C)Cc2ccccc2)nc2c1CCNCC2 [Example 113, N-2-benzyl-N-2,N-4,N-4-trimethyl-6,7,8,9-tetra-hydro-5H-pyrimido[4,5-d]azepine-2,4-diamine] | – | 0.279 | 50.8 | –
FC(F)(F)CCCOc1nc(Cc2ccccc2)nc2c1CCNCC2 [Example 84, 2-benzyl-4-(4,4,4-trifluorobutoxy)-6,7,8,9-tetrahydro-5H-pyrimido[4,5-d]azepine] | 36.4 | 0.395 | – | –
CC(CN1CCOCC1)Oc1nc(Cc2ccccc2)nc2c1CCNCC2 (stereo not shown) [Example 82, 2-benzyl-4-(1-methyl-2-morpholin-4-ylethoxy)-6,7,8,9-tetrahydro-5H-pyrimido[4,5-d]azepine] | 71.9 | 0.304 | – | –
c1ccc(CNc2nc(N3CCC3)nc3c2CCNCC3)cc1 [Example 108, 2-azetidin-1-yl-N-benzyl-6,7,8,9-tetrahydro-5H-pyrimido[4,5-d]azepin-4-amine] | 44.4 | 0.149 | – | –
CCNc1nc(N2CCc3ccccc3C2)nc2c1CCNCC2 [Example 87, 2-(3,4-dihydroisoquinolin-2(1H)-yl)-N-ethyl-6,7,8,9-tetrahydro-5H-pyrimido-[4,5-d]azepin-4-amine] | 57.1 | 0.0483 | – | –
CNc1nc(N2CCSCC2)nc2c1CCNCC2 [Example 93, N-methyl-2-thio-morpholin-4-yl-6,7,8,9-tetrahydro-5H-pyrimido-[4,5-d]azepin-4-amine] | 77 | 0.0115 | – | –

Compound | Emax (CHO-K1, efficacy) [%] | EC50 [µM] | Emax % (efficacy) [%] | Emax (efficacy) [%]
CCNc1nc2c(c(N(C)CC3CC3)n1)CCNCC2 [Example 112, N-4-(cyclopropylmethyl)-N-2-ethyl-N-4-methyl-6,7,8,9-tetrahydro-5H-pyrimido[4,5-d]azepine-2,4-diamine] | 42.8 | 0.543 | – | –
c1ccc(CCNc2nc3c(c(N4CCSCC4)n2)CCNCC3)cc1 [Example 110, N-(2-phenylethyl)-4-thiomorpholin-4-yl-6,7,8,9-tetrahydro-5H-pyrimido[4,5-d]azepin-2-amine] | 38.8 | 0.604 | – | –
CCN(C)c1nc(N2CCSCC2)nc2c1CCNCC2 [Example 92, N-ethyl-N-methyl-2-thiomorpholin-4-yl-6,7,8,9-tetrahydro-5H-pyrimido-[4,5-d]azepin-4-amine] | 77.3 | 0.09 | – | –
CCCNc1nc2c(c(N3CCSCC3)n1)CCNCC2 [Example 111, N-propyl-4-thiomorpholin-4-yl-6,7,8,9-tetrahydro-5H-pyrimido[4,5-d]-azepin-2-amine] | 64.3 | 0.141 | – | –
c1ccc(CCNc2nc(N3CCSCC3)nc3c2CCNCC3)cc1 [Example 91, N-(2-phenylethyl)-2-thiomorpholin-4-yl-6,7,8,9-tetrahydro-5H-pyrimido-[4,5-d]azepin-4-amine] | 69.6 | 0.186 | – | –
CNc1nc(C(C)c2ccccc2)nc2c1CCNCC2 (stereo not shown) [Example 3, N-methyl-2-(1-phenylethyl)-6,7,8,9-tetrahydro-5H-pyrimido[4,5-d]azepin-4-amine] | – | – | – | 60.8
Fc1ccccc1Cc1ncc2c(n1)CCNCC2 [Example 60, 2(2-Fluorobenzyl)-6,7,8,9-tetrahydro-5H-pyrimido[4,5-d]azepine] | 65.1 | 0.194 | – | –
CCN(C)c1nc2c(c(NCC3CC3)n1)CCNCC2 [Example 99, N-4-(cyclopropylmethyl)-N-2-ethyl-N-2-methyl-6,7,8,9-tetrahydro-5H-pyrimido[4,5-d]azepin-4-amine] | 69.5 | 0.103 | – | –
Cc1ccc(Cc2ncc3c(n2)CCNCC3)cc1 [Example 64, 2-(4-Methylbenzyl)-6,7,8,9-tetrahydro-5H-pyrimido[4,5-d]azepine] | 63.1 | 0.1 | – | –
CCN(C)c1nc2c(c(N(C)C)n1)CCNCC2 [Example 100, N-2-ethyl-N-2,N-4,N-4-trimethyl-6,7,8,9-tetra-hydro-5H-pyrimido-[4,5-d]azepine-2,4-diamine] | 51.2 | 0.122 | – | –
C1Cc2nc(NC3CC3)nc(N3CCSCC3)c2CCN1 [Example 109, N-cyclopropyl-4-thio-morpholin-4-yl-6,7,8,9-tetrahydro-5H-pyrimido-[4,5-d]azepin-2-amine] | 87.7 | 0.247 | – | –
CC(C)(C)OCCOc1nc(Cc2ccccc2)nc2c1CCNCC2 [Example 81, 2-benzyl-4-(2-tert-butoxyethoxy)-6,7,8,9-tetrahydro-5H-pyrimido[4,5-d]azepine] | 60.3 | 0.195 | – | –
N#Cc1ccc(CCOc2nc(Cc3ccccc3)nc3c2CCNCC3)cc1 [Example 75, 4-{2-[(2-benzyl-6,7,8,9-tetrahydro-5H-pyrimido-[4,5-d]azepin-4-yl)oxy]ethyl}-benzonitrile] | 90.1 | 0.0581 | – | –
c1ccc(Cc2nc3c(c(OCCc4ccccn4)n2)CCNCC3)cc1 [Example 73, 2-benzyl-4-(2-pyridin-2-ylethoxy)-6,7,8,9-tetrahydro-5H-pyrimido[4,5-d]azepine] | 83.3 | 0.00861 | – | –
CN(C)c1nc2c(c(N(C)C)n1)CCNCC2 [Example 107, N,N,N′,N′-tetramethyl-6,7,8,9-tetrahydro-5H-pyrimido[4,5-d]azepine-2,4-diamine] | 43.2 | 0.363 | – | –
